For 20 compounds, solubility and IC50 results are on record in US9234000B2, “Benzylamine derivatives as inhibitors of plasma kallikrein” (KalVista Pharmaceuticals Limited, priority 2011, dated 2016).

What is called solubility is the dissolved amount per volume that the medium holds. For orientation: pIC50 means −log10 of the IC50, conventionally taken in molar units.

Series [1] can be described thus: Determination of thermodynamic solubility in phosphate buffer. It counts as physicochemical. The note with it: pH 7.4, aqueous buffer, thermodynamic from solid, ammonium phosphate buffer pH7.4, 290 mOsm, 37° C., nominal 1 mg/mL, read-out: Solubility in PO4 buffer. On the procedure:
Determination of Thermodynamic Solubility in Phosphate Buffer
The thermodynamic solubility of compound was determined in Ammonium Phosphate Buffer (pH7.4, 290 mOsm). Compounds were made up at a nominal concentration of 1 mg/mL, vortexed then placed on a shaker for 1 h, 37° C. at approximately 950 rpm. Following incubation samples were transferred to eppendorf tubes and centrifuged at 15,000 g (r.c.f.) for 10 minutes at 37° C. The concentration of compound in the supernatant was determined by LC-MS/MS analysis using a calibration line prepared from a DMSO stock.

Series [2] deals with Human plasma kallikrein (Homo sapiens (Human), UniProt P03952). Briefly: Determination of the IC50 for plasma kallikrein. The format is biochemical. The note with it: 37° C., substrate H-DPro-Phe-Arg-AFC, read-out: IC50 (human PKal). In short, it runs like this: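 Residual activity (initial rate, absorbance at 410 nm) gave the IC50. Reactions at 37° C combined human plasma kallikrein, substrate H-DPro-Phe-Arg-AFC and a range of inhibitor concentrations.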

The target of series [3] is Human KLK1 (Homo sapiens (Human), UniProt P06870). The experiment in a line: Determination of the IC50 for KLK1. It counts as biochemical. As to conditions: Human KLK1, 37° C., substrate H-DVal-Leu-Arg-AFC; Table 13. The essentials:
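IC50 values reflect residual human KLK1 activity, read as initial rate from optical absorbance change at 410 nm. Incubations ran at 37° C with H-DVal-Leu-Arg-AFC as substrate across a compound concentration series.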

pIC50: −log10 of the molar value. Converted amounts (≈) assume the structure as drawn.

Sequence of Human KLK1 (P06870 25-262): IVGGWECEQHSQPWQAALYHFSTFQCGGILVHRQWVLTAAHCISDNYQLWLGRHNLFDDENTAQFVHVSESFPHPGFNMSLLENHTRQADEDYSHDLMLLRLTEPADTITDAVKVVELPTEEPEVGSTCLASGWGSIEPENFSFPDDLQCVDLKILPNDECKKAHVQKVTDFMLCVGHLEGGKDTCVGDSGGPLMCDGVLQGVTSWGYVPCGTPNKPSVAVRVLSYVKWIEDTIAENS
Sequence of Human plasma kallikrein (P03952 391-638): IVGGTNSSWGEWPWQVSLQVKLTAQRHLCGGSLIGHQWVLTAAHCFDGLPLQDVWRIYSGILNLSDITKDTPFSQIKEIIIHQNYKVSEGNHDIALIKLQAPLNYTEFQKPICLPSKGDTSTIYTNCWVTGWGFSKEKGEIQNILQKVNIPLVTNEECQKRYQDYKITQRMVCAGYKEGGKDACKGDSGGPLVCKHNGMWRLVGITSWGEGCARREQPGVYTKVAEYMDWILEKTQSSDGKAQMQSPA
Sequence of Human plasma kallikrein (P03952 20-390 partner): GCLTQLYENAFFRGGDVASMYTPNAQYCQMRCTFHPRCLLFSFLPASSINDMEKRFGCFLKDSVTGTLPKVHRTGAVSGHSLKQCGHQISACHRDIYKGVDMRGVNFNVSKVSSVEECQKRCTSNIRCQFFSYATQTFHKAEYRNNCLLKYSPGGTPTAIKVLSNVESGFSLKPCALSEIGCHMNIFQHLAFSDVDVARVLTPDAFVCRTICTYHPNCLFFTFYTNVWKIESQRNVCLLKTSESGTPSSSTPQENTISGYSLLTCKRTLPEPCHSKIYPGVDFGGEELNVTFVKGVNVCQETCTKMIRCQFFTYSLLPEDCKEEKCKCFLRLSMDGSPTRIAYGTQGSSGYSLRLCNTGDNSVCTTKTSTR

Take `CCOc1ccc(C[C@@H](NC(=O)c2cccc(Cl)c2)C(=O)N[C@@H](Cc2ccccc2)C(=O)NCc2ccc(CN)cc2)cc1` [Example 88, N-[(R)-1-[(S)-1-(4-Aminomethyl-benzylcarbamoyl)-2-phenyl-ethylcarbamoyl]-2-(4-ethoxy-phenyl)-ethyl]-3-chloro-benzamide]: the solubility at 1 h in series [1] is 0.2 µg/mL (≈ 0.326 µM). Besides, the pIC50 in series [2] was 7.05; in series [3] it was below 5.00.
For `CCOc1ccc(C[C@@H](NC(=O)c2ccc(F)cc2)C(=O)N[C@@H](Cc2ccccc2)C(=O)NCc2ccc(CN)cc2)cc1` [Example 99, N-[(R)-1-[(S)-1-(4-Aminomethyl-benzylcarbamoyl)-2-phenyl-ethylcarbamoyl]-2-(4-ethoxy-phenyl)-ethyl]-4-fluoro-benzamide], in that order: 2.88 µg/mL (≈ 4.83 µM), 7.02 and below 5.00.
For `CCOc1ccc(C[C@@H](NC(=O)c2ccccc2)C(=O)N[C@@H](Cc2ccc(F)cc2)C(=O)NCc2ccc(CN)cc2)cc1` [Example 143, N-[(R)-1-[(S)-1-(4-Aminomethyl-benzylcarbamoyl)-2-(4-fluoro-phenyl)-ethylcarbamoyl]-2-(4-ethoxy-phenyl)-ethyl]-benzamide], in that order: 2.86 µg/mL (≈ 4.79 µM), 7.08 and below 5.00.
For `CCOc1ccc(C[C@@H](NC(=O)c2cccs2)C(=O)N[C@@H](Cc2ccccc2)C(=O)NCc2ccc(CN)cc2)cc1` [Example 73, Thiophene-2-carboxylic acid [(R)-1-[(S)-1-(4-aminomethyl-benzylcarbamoyl)-2-phenyl-ethylcarbamoyl]-2-(4-ethoxy-phenyl)-ethyl]-amide], in that order: 5.1 µg/mL (≈ 8.72 µM), 7.60 and 5.03.
Take `CCOc1ccc(C[C@@H](NC(=O)c2sccc2Cl)C(=O)N[C@@H](Cc2ccccc2)C(=O)NCc2ccc(CN)cc2)cc1` [Example 116, 3-Chloro-thiophene-2-carboxylic acid [(R)-1-[(S)-1-(4-aminomethyl-benzylcarbamoyl)-2-phenyl-ethylcarbamoyl]-2-(4-ethoxy-phenyl)-ethyl]-amide]: the solubility at 1 h in series [1] stood at 1.39 µg/mL (≈ 2.24 µM). Further, the pIC50 in series [2] is 7.74; in series [3], 5.20.
For `CCOc1ccc(C[C@@H](NC(=O)c2ccc(Cl)cc2)C(=O)N[C@@H](Cc2cccnc2)C(=O)NCc2ccc(CN)cc2)cc1` [Example 173, N-[(R)-1-[(S)-1-(4-Aminomethyl-benzylcarbamoyl)-2-pyridin-3-yl-ethylcarbamoyl]-2-(4-ethoxy-phenyl)-ethyl]-4-chloro-benzamide], in that order: 2.38 µg/mL (≈ 3.88 µM), 6.67 and below 5.00.
Taken in the same sequence, the figures for `CCOc1ccc(C[C@@H](NC(=O)c2cccs2)C(=O)N[C@@H](Cc2cccnc2)C(=O)NCc2ccc(CN)cc2)cc1` [Example 162, Thiophene-2-carboxylic acid [(R)-1-[(S)-1-(4-aminomethyl-benzylcarbamoyl)-2-pyridin-3-yl-ethylcarbamoyl]-2-(4-ethoxy-phenyl)-ethyl]-amide] were 69.7 µg/mL (≈ 119 µM), 8.00 and below 5.00.
For `CCOc1ccc(C[C@@H](NC(=O)c2ccc(OC)cc2)C(=O)N[C@@H](Cc2ccccn2)C(=O)NCc2ccc(CN)cc2)cc1` [Example 158, N-[(R)-1-[(S)-1-(4-Aminomethyl-benzylcarbamoyl)-2-pyridin-2-yl-ethylcarbamoyl]-2-(4-ethoxy-phenyl)-ethyl]-4-methoxy-benzamide], in that order: 70.6 µg/mL (≈ 116 µM), 7.33 and below 5.00.
Turning to `CCOc1ccc(C[C@@H](NC(=O)c2ccno2)C(=O)N[C@@H](Cc2ccccc2)C(=O)NCc2ccc(CN)cc2)cc1` [Example 79, Isoxazole-5-carboxylic acid [(R)-1-[(S)-1-(4-aminomethyl-benzylcarbamoyl)-2-phenyl-ethylcarbamoyl]-2-(4-ethoxy-phenyl)-ethyl]-amide], the solubility at 1 h in series [1] came to 2.4 µg/mL (≈ 4.21 µM). Further, the pIC50 in series [2] was 7.42; in series [3], 5.07.
For the compound `CCOc1ccc(C[C@@H](NC(=O)c2ccccc2)C(=O)N[C@@H](Cc2ccc(F)c(F)c2)C(=O)NCc2ccc(CN)cc2)cc1` [Example 200, N—[(R)-1-[(S)-1-(4-Aminomethyl-benzylcarbamoyl)-2-(3,4-difluoro-phenyl)-ethylcarbamoyl]-2-(4-ethoxy-phenyl)-ethyl]-benzamide], in series [1], the solubility at 1 h turned out to be 0.22 µg/mL (≈ 0.358 µM). Besides, the figures for the pIC50 in series [2] and in series [3] were 7.35 and 5.12, respectively.
For `CCOc1ccc(C[C@@H](NC(=O)c2sccc2NC(C)=O)C(=O)N[C@@H](Cc2ccccc2)C(=O)NCc2ccc(CN)cc2)cc1` [Example 179, 3-Acetylamino-thiophene-2-carboxylic acid-[(R)-1-[(S)-1-(4-aminomethyl-benzylcarbamoyl)-2-phenyl-ethylcarbamoyl]-2-(4-ethoxy-phenyl)-ethyl]-amide], in that order: 17.7 µg/mL (≈ 27.6 µM), 7.66 and 5.14.
For `CCOc1ccc(C[C@@H](NC(=O)c2ccsc2)C(=O)N[C@@H](Cc2ccccc2)C(=O)NCc2ccc(CN)cc2)cc1` [Example 72, Thiophene-3-carboxylic acid-[(R)-1-[(S)-1-(4-aminomethyl-benzylcarbamoyl)-2-phenyl-ethylcarbamoyl]-2-(4-ethoxy-phenyl)-ethyl]-amide], the solubility at 1 h in series [1] stood at 6.9 µg/mL (≈ 11.8 µM). The pIC50 in series [2] was 7.34; in series [3], 5.04.
Taken in the same sequence, the figures for `CCOc1ccc(C[C@@H](NS(=O)(=O)c2ccc(Cl)cc2)C(=O)N[C@@H](Cc2ccccc2)C(=O)NCc2ccc(CN)cc2)cc1` [Example 84, (R)-N-[(S)-1-(4-Aminomethyl-benzylcarbamoyl)-2-phenyl-ethyl]-2-(4-chloro-benzenesulfonylamino)-3-(4-ethoxy-phenyl)-propionamide] were 0.5 µg/mL (≈ 0.77 µM), 6.66 and 5.92.
For `CCOc1ccc(C[C@@H](NC(=O)c2ccncc2)C(=O)N[C@@H](Cc2csc3ccccc23)C(=O)NCc2ccc(CN)cc2)cc1` [Example 178, N-[(R)-1-[(S)-1-(4-Aminomethyl-benzylcarbamoyl)-2-benzo[b]thiophen-3-yl-ethylcarbamoyl]-2-(4-ethoxy-phenyl)-ethyl]-isonicotinamide], in that order: 1.54 µg/mL (≈ 2.42 µM), 7.38 and below 5.00.
For `CCOc1ccc(C[C@@H](NC(=O)c2sccc2C)C(=O)N[C@@H](Cc2cccnc2)C(=O)NCc2ccc(CN)cc2)cc1` [Example 181, 3-Methyl-thiophene-2-carboxylic acid [(R)-1-[(S)-1-(4-aminomethyl-benzylcarbamoyl)-2-pyridin-3-yl-ethylcarbamoyl]-2-(4-ethoxy-phenyl)-ethyl]-amide], in that order: 61.6 µg/mL (≈ 103 µM), 8.00 and below 5.00.
Regarding `CCOc1ccc(C[C@@H](NC(=O)c2ccccn2)C(=O)N[C@@H](Cc2ccccc2)C(=O)NCc2ccc(CN)c(Cl)c2)cc1` [Example 159, Pyridine-2-carboxylic acid [(R)-1-[(S)-1-(4-aminomethyl-3-chloro-benzylcarbamoyl)-2-phenyl-ethylcarbamoyl]-2-(4-ethoxy-phenyl)-ethyl]-amide], the solubility at 1 h in series [1] was determined as 1.15 µg/mL (≈ 1.87 µM). Moreover, the pIC50 was 7.82 in series [2] and below 5.00 in series [3].
For `CCOc1ccc(C[C@@H](NC(=O)c2ccno2)C(=O)N[C@@H](Cc2cccnc2)C(=O)NCc2ccc(CN)cc2)cc1` [Example 174, Isoxazole-5-carboxylic acid [(R)-1-[(S)-1-(4-aminomethyl-benzylcarbamoyl)-2-pyridin-3-yl-ethylcarbamoyl]-2-(4-ethoxy-phenyl)-ethyl]-amide], in that order: 233 µg/mL (≈ 408 µM), 7.35 and below 5.00.
On to `CCCOc1ccc(C[C@@H](NC(=O)c2ccccc2)C(=O)N[C@@H](Cc2ccccc2)C(=O)NCc2ccc(CN)cc2)cc1` [Example 131, N-[(R)-1-[(S)-1-(4-Aminomethyl-benzylcarbamoyl)-2-phenyl-ethylcarbamoyl]-2-(4-propoxy-phenyl)-ethyl]-benzamide], for which the solubility at 1 h in series [1] amounted to 0.56 µg/mL (≈ 0.945 µM).
The same measure, in the same setting: next, `CCOc1ccc(C[C@@H](NC(=O)c2ccccc2)C(=O)N[C@@H](Cc2c[nH]c3ccccc23)C(=O)NCc2ccc(CN)cc2)cc1` [Example 176, N-[(R)-1-[(S)-1-(4-Aminomethyl-benzylcarbamoyl)-2-(1H-indol-3-yl)-ethylcarbamoyl]-2-(4-ethoxy-phenyl)-ethyl]-benzamide]: 2.28 µg/mL (≈ 3.69 µM); `CCOc1ccc(C[C@@H](NC(=O)c2ccc(OC)cc2)C(=O)N[C@@H](Cc2ccccc2)C(=O)NCc2ccc(CN)cc2)cc1` [Example 95, N-[(R)-1-[(S)-1-(4-Aminomethyl-benzylcarbamoyl)-2-phenyl-ethylcarbamoyl]-2-(4-ethoxy-phenyl)-ethyl]-4-methoxy-benzamide]: 2.05 µg/mL (≈ 3.37 µM).
